Laboratory results published in publication PMC12389196, “Novel Indole-Based Sulfonylhydrazones as Potential Anti-Breast Cancer Agents: Synthesis, In Vitro Evaluation, ADME, and QSAR Studies” (Pharmaceuticals, 2025).
Several values for one entry are separate records, joined by “and”; a condition that tells them apart may be missing. Identical values can stand only once.

How the values were obtained:
[1] = system: Neuro-2a (mouse neuroblastoma) cells; test: MTT assay on Neuro-2a reference cells; format: cell-based; conditions: N2a, 72 h
Procedure: (§1) The antiproliferative activity of the novel indolyl-methylidene-substituted phenylsulfonylhydrazones (3a–j) and the bis-indole hydrazine derivative (4) was evaluated against two breast cancer cell lines: MCF-7 and MDA-MB-231. The MCF-7 cell line, derived from human breast adenocarcinoma, expresses estrogen receptor alpha (ER-α). In contrast, the MDA-MB-231 cell line represents triple-negative breast cancer (TNBC) and lacks expression of estrogen, progesterone, and HER2 receptors. Antiproliferative activity was expressed as IC50, the concentration (in μM) required to inhibit 50% of cell growth, and ligand efficiency (LE), calculated as LE = −log(IC50)/number of heavy atoms. To assess the selectivity index (SI = IC50 on Neuro-2a/IC50 on breast cancer cell line), the compounds were also tested on Neuro-2a cells, a mouse neuroblastoma cell line derived from brain tissue.
(§2) The in vitro antineoplastic activity of the synthesized compounds was tested against human breast cancer cell lines, comprising the triple-negative MDA-MB-231 and the […] MCF-7. Neuroblastoma mouse cells Neuro-2a were used as a non-breast cancer cell line reference. All cell lines were obtained from the German Collection of Microorganisms and Cell Cultures (DSMZ, Braunschweig, Germany) and cultivated and maintained in accordance with the supplier’s protocols. The cells were cultured in RPMI 1640 growth medium (Gibco, Thermo Fisher Scientific, Waltham, MA, USA), supplemented with 10% fetal bovine serum (FBS; Gibco, Thermo Fisher Scientific, Waltham, MA, USA) and 5% L-glutamine (Gibco, Thermo Fisher Scientific, Waltham, MA, USA), and incubated at standard conditions of 37 °C in a humidified environment with 5% CO2.
(§3) The cytostatic activity of the tested compounds was evaluated using the Mosmann MTT assay—a well-established colorimetric method for assessing cell viability. This assay measures mitochondrial enzyme activity by reducing the yellow dye MTT (3-(4,5-dimethylthiazol-2-yl)-2,5-diphenyltetrazolium bromide) into violet formazan crystals. The exponentially growing cells were harvested and seeded into 96-well plates at a density of 1.5 × 10^5 cells per well in 100 μL of medium and incubated for 24 h. The cell cultures were then treated with various concentrations (200–6.25 μM) of the tested compounds and incubated for 72 h. Cell viability was quantified as a percentage (%) relative to the untreated control, which was set at 100% viability.
(§4) The experimental data were analyzed using nonlinear regression in GraphPad Prism® software, version 9.0. Semi-logarithmic dose–response curves were generated, and the half-maximal inhibitory concentrations (IC50) of the tested compounds were calculated for each tumor cell line.

[2] = system: MCF-7 (ER-positive breast adenocarcinoma) cells; test: MTT assay, antiproliferative activity on MCF-7 cells; format: cell-based, human; conditions: for IC50: MTT, 72 h; for SI MCF-7 (selectivity index): SI = IC50 on Neuro-2a/IC50 on MCF-7
Procedure: as §1, §2, §3, §4

[3] = system: MDA-MB-231 (triple-negative breast cancer) cells; test: MTT assay, antiproliferative activity on MDA-MB-231 cells; format: cell-based, human; conditions: for IC50: MTT, 72 h; for SI MDA-MB-231 (selectivity index): SI = IC50 on Neuro-2a/IC50 on MDA-MB-231
Procedure: as §1, §2, §3, §4

[4] = system: MCF-7 (ER-positive breast adenocarcinoma) cells; parameters: method as in PMID 36903304; conditions: previous study ref 48; cited from earlier work

Molecule	IC50 [1]	IC50 ([2]; Homo sapiens, MCF7, 72 h)	IC50 ([3]; Homo sapiens, MDA-MB-231, 72 h)	SI MCF-7 (selectivity index) [2]	SI MDA-MB-231 (selectivity index) [3]	IC50 [2]	IC50 [3]	selectivity index MCF-7, earlier series of arylsulfonylhydrazones [4]
Clc1ccc2[nH]cc(/C=N/N=C/c3c[nH]c4ccc(Cl)cc34)c2c1 [compound 4, 3,3′-[(1E,2E)-hydrazine-1,2-diylidenedi(E)methylylidene]bis(5-chloro-1H-indole)]	53.7 ± 3.1 µM	21.4 ± 4.9 µM	66 ± 7.4 µM	2.509	0.814	–	–	–
N.N.[Cl][Pt][Cl] [Cisplatin, reference compound]	–	–	–	–	–	50.3 ± 6.5 µM	63.4 ± 7.2 µM	–
Cc1ccc(S(=O)(=O)N/N=C/c2c[nH]c3ccc(Cl)cc23)cc1C [3j, N′-[(E)-(5-Chloro-1H-indol-3-yl)methylidene]-3,4-dimethylbenzene-1-sulfonohydrazide]	35.5 ± 5.3 µM	11.5 ± 2.3 µM	13.3 ± 2.2 µM	3.087	2.669	–	–	–
CC(=O)n1cc(C=NNS(=O)(=O)c2ccc(C)cc2)c2ccccc21 [1d, N′-[(1-acetyl-1H-indol-3-yl)methylidene]-4-methylbenzenesulfonohydrazide]	–	–	–	–	–	–	–	≤ 46
COc1ccc(S(=O)(=O)N/N=C/c2cn(C(C)=O)c3ccccc23)cc1 [3a, N′-[(E)-(1-Acetyl-1H-indol-3-yl)methylidene]-4-methoxybenzene-1-sulfonohydrazide]	58 ± 8.2 µM	4.3 ± 1.3 µM	20.1 ± 3.4 µM	13.5 and 13.488	2.886	–	–	–
CC(=O)n1cc(/C=N/NS(=O)(=O)c2c(C)cc(C)cc2C)c2ccccc21 [3b, N′-[(E)-(1-Acetyl-1H-indol-3-yl)methylidene]-2,4,6-trimethylbenzene-1-sulfonohydrazide]	83.9 ± 9.4 µM	4 ± 0.9 µM	16.3 ± 4.1 µM	20.975	5.147	–	–	–
N′-[(1-acetyl-1H-indol-3-yl)methylidene]benzenesulfonohydrazide [1c]	–	–	–	–	–	–	–	up to 40

Now from value to molecule, other results behind:

IC50 [1]	IC50 ([2]; Homo sapiens, MCF7, 72 h)	IC50 ([3]; Homo sapiens, MDA-MB-231, 72 h)	Molecule	SI MCF-7 (selectivity index) [2]	SI MDA-MB-231 (selectivity index) [3]	IC50 [2]	IC50 [3]	selectivity index MCF-7, earlier series of arylsulfonylhydrazones [4]
24 ± 1.9 µM	15.2 ± 2.1 µM	18.1 ± 2.5 µM	Cc1cc(C)c(S(=O)(=O)N/N=C/c2c[nH]c3ccc(Cl)cc23)c(C)c1 [3h, N′-[(E)-(5-Chloro-1H-indol-3-yl)methylidene]-2,4,6-trimethylbenzene-1-sulfonohydrazide]	1.579	1.326	–	–	–
21 ± 2.1 µM	4.2 ± 0.7 µM	19.9 ± 1.6 µM	Cc1cc(C)c(S(=O)(=O)N/N=C/c2c[nH]c3ccc(Br)cc23)c(C)c1 [3d, N′-[(E)-(5-Bromo-1H-indol-3-yl)methylidene]-2,4,6-trimethylbenzene-1-sulfonohydrazide]	5.000	1.055	–	–	–
34.8 ± 5.7 µM	29.6 ± 5.1 µM	18.7 ± 2.7 µM	Cc1ccc(S(=O)(=O)N/N=C/c2c[nH]c3ccc(Br)cc23)cc1 [3e, N′-[(E)-(5-Bromo-1H-indol-3-yl)methylidene]-4-methylbenzene-1-sulfonohydrazide]	1.176	1.861	–	–	–
15.9 ± 1.6 µM	12.4 ± 3.2 µM	< 10 µM	Cc1ccc(S(=O)(=O)N/N=C/c2c[nH]c3ccc(Cl)cc23)c(C)c1 [3i, N′-[(E)-(5-Chloro-1H-indol-3-yl)methylidene]-2,4-dimethylbenzene-1-sulfonohydrazide]	1.282	1.674	–	9.5 ± 1.5 µM	–
26.2 ± 3.5 µM	12.7 ± 2.8 µM	14.7 ± 1.8 µM	COc1ccc(S(=O)(=O)N/N=C/c2c[nH]c3ccc(Cl)cc23)cc1 [3g, N′-[(E)-(5-Chloro-1H-indol-3-yl)methylidene]-4-methoxybenzene-1-sulfonohydrazide]	2.063	1.782	–	–	–
18.6 ± 3.9 µM	5.2 ± 1 µM	17.7 ± 2.3 µM	COc1ccc(S(=O)(=O)N/N=C/c2c[nH]c3ccc(Br)cc23)cc1 [3c, N′-[(E)-(5-Bromo-1H-indol-3-yl)methylidene]-4-methoxybenzene-1-sulfonohydrazide]	3.577	1.051	–	–	–
10.9 ± 1.8 µM	< 6 µM	–	O=S(=O)(N/N=C/c1c[nH]c2ccc(Br)cc12)c1ccccc1 [3f, N′-[(E)-(5-Bromo-1H-indol-3-yl)methylidene]benzene-1-sulfonohydrazide]	1.847	2.319	5.9 ± 1.4 µM	–	–
